Reference: US11492321B2, “Method for producing capped 3-hydroxycarboxylic acids and their salts and esters” (IOI Oleo GmbH, priority 2019, dated 2022)

Legend:
[1] = Cleavage experiments in FaSSGF medium simulating the stomach; type: in vitro ADME; settings: in the presence or absence of pancreatin
From the text: (§1) By means of cleavage experiments it is shown that reaction products prepared according to the invention or mixtures thereof can be cleaved in the human gastrointestinal tract. The starting mixture used is, on the one hand, a 3-acetoxybutyric acid ethyl ester obtained and purified by the process according to the invention as described hereinabove and, on the other hand, in each case the 3-BHB ethyl esters capped in the 3-position with the carboxylic acid anhydride (heptanoic acid anhydride, lauric acid anhydride or oleic acid anhydride) obtained and purified by the process according to the invention as described hereinabove.
(§2) For the cleavage experiments under near-body conditions two media are investigated: • FaSSGF, which simulates the stomach • FaSSIF, which simulates the intestinal tract
(§3) Both media are from the company Biorelevant®, Ltd. in Great Britain. In addition, in some experiments porcine pancreas is added (Panzytrat® 40,000, Fa. Allergan).
(§4) Under FaSSIF conditions, a lower conversion using Panzytrat® takes place.

[2] = Cleavage experiments in FaSSIF medium simulating the intestinal tract; type: in vitro ADME; settings: in the presence or absence of pancreatin
From the text: as §1, §2, §3, §4

[3] = even if several grams are taken; patients; cited from earlier work

Compound | cleavage in gastric medium [1] | cleavage in intestinal medium [2] | duration of ketosis [3]
CCOC(=O)CC(C)OC(C)=O (stereo not drawn) [3-acetoxybutyric acid ethyl ester] | cleavage to 3-BHB in free form | cleavage to 3-BHB in free form | –
CC(O)CC(=O)O (stereo not drawn) [3-hydroxybutyric acid] | – | – | three to four
